How the values were obtained:
[1] = Fibril formation by quasielastic light-scattering spectroscopy (QLS); format: physicochemical; conditions: phosphate buffer pH 7.4, 3 samples of 10 μg/ml, 5 consecutive days
Method: Fibril formation was measured in 3 equivalent samples of 10 μg/ml Aβ for 5 consecutive days. […] Nested Aβ peptides (Aβ1-15, Aβ4-18, Aβ7-21, Aβ10-24, Aβ13-27, Aβ16-30, Aβ19-33, Aβ22-36, Aβ25-39, Aβ28-42) and alanine/glycine-substituted peptides were synthesized at Biosource International (Hopkinton, Mass.). Aβ peptides used for T-cell assays were dissolved in DMSO (2 mg/ml). Glatiramer acetate (GA) was obtained at the Brigham and Women's Hospital pharmacy.

[2] = tested on: Aβ1-42-reactive T-cell lines; assay: Epitope mapping / proliferation of Aβ1-42-reactive T-cell lines; format: cell-based, human
Method: Epitope specificity of these 3 T-cell lines using 5 overlapping peptides within Aβ15-42 was further investigated.
(§1) T-cell lines were then supplemented with 10 μg/ml IL-2 after 48 hours and every 2 days thereafter until they were completely resting. T-cell proliferation was measured 72 hours after stimulation following a 12 hr incubation with [^3H]-thymidine. Supernatants were collected 48 hr after T-cell stimulation, and antigen-induced cytokine production was measured by sandwich ELISA. Recommended pairs of antibodies (coating and detecting) for IL-10 (R&D, Minneapolis, Minn.), INF-γ. Endogen, Woburn, Mass.), IL-13 (PharMingen, (San Diego, Calif.), and TGF-β (Promega, Madison, Wis.) were used according to the manufacturer's instructions. Surface and intracellular staining was performed on Aβ-reactive T-cells after stimulation. All antibodies were purchased from BD Biosciences (San Diego, Calif.) and staining was performed according to the manufacturer's instructions.

Aβ-reactive T cells = assay: FACS of activation marker and cytokine expression in an Aβ-reactive T-cell line; format: cell-based, human; conditions: 30 hr after stimulation with irradiated autologous PBMCs
Method: To further determine the phenotype of Aβ-reactive T cells, a representative T-cell line also was tested by FACS for Th1 and Th2 cytokine expression. […] We further asked whether the cytokine profiles represented primarily Th2 lineages by testing for the expression of INF-γ and IL-13/IL-5 in the same cells.
as §1

Aβ-reactive T-cell lines = assay: Cytokine secretion of Aβ-reactive T-cell lines (sandwich ELISA); format: cell-based, human
Method: as §1

[3] = tested on: peripheral blood mononuclear cells; assay: Primary stimulation of PBMCs with αCD3/CD28 or glatiramer acetate ([3H]thymidine proliferation); format: cell-based, human
Method: In this study, αCD3/CD28 stimulation was measured as follows. PBMCs were cultured with 1 μg/ml soluble αCD3 plus αCD28 or cell culture medium alone, pulsed with [^3H] thymidine on day 2 after stimulation and incorporation measured 12 hr later. For glatiramer acetate stimulation, cells were cultured with 50 μg/ml GA or cell culture medium alone, and pulsed with [^3H] thymidine on day 6. Mean cpm=average cpm for each group. The average cpm for cells with culture medium alone was 825. […] Proliferative responses were calculated from these subjects. Two-tailed p values were calculated for the mean cpm using the alternate Welch test, assuming Gaussion populations with unequal SD's.
Primary stimulation with αCD3/CD28 or GA: For […] stimulation frozen PBMCs (2×10^5 cells/well) were cultured in 5 wells (U-bottom 96-well plate) in the presence of 1 μg/ml soluble αCD3 plus αCD28 and in additional 5 wells with cell culture medium alone, pulsed with […] thymidine on day 2 after stimulation and incorporation measured 12 hr later. For glatiramer acetate stimulation, fresh PBMCs were cultured in 5 wells with 50 μg/ml GA or cell culture medium alone, pulsed with [^3H] thymidine on day 6, and incorporation measured 12 hr later.

[4] = tested on: Primary cultures of microglia; assay: Aβ uptake and motility of microglia treated with IFN-γ (live confocal imaging); format: cell-based, mouse
Method: The meningoencephailis we observed was completely dependent on expression of IFN-g in the CNS. […] We therefore established an in vitro system to examine early events associated with microglia activation by IFN-γ and their contribution to uptake of Aβ and specific T-cell activation. Primary cultures of microglia were prepared and live images were obtained by a confocal microscope, as described in Methods. FITC-labeled Aβ was added to the culture for 30 min, cultures were carefully washed, and live images were taken for 30 minutes. […] (FIG. 10B).
Preparation of cultures of mouse brain microglia: Glial cultures were prepared as described (JI). […]
Aβ uptake and T-cell stimulation by microglia: PE-labeled microglial cells were cultured in MatTek culture dishes (Ashland, Mass.) for 24 hours in the DMEM-FCS medium. […] Live images were then taken for 30 min with 20 sec intervals by a Zeiss Laser Scanning Confocal Microscope and analyzed by 3D analysis software (Zeiss, Thornwood, N.Y.). […]

[5] = tested on: microglia and resting Aβ-reactive T cells; assay: Co-culture of microglia and resting Aβ-reactive T cells; format: cell-based, mouse
Method: Microglial cells were sorted and cultured for 12 hours in the presence and absence of IFN-γ. […] Representative areas were then extracted (shown in higher power) and analyzed for the pattern of T-cell migration. In the IFN-γ-treated culture, T cells were attracted to microglial cells, indicated by the sharp turns between the cells (FIG. 11B), and made a significant higher average number of contacts with the microglial cells, as compared with the untreated microglial culture (about 2.1 versus about 0.5, P<0.001) (FIG. 11B). […] These contacts are short time synapse formations characteristics of an early event during T-cell stimulation.
Preparation of cultures of mouse brain microglia: Glial cultures were prepared as described (JI). Briefly, cells were dissociated from the cerebral cortex of 1-day-old C57BL/6 mice after careful removal of meninges tissues, and were cultured in poly-D-lysine (PDL)-coated tissue culture flasks in medium supplemented with Dulbecco's modified Eagle's medium (DMEM), 4 mM L-glutamine, 50 U/ml penicillin, […] streptomycin, 10 mM HEPES, 1 mM sodium pyruvate, 10 mM nonessential amino acids, […] 2-mercaptoethanol (Sigma, St Louis, Mo.), and 10% fetal calf serum (FCS). On day 7, cultures were incubated with 100 pg/ml IFN-γ for 72 hours and on day 10, the entire glial culture was trypsinized and microglia were labeled with PE-conjugated anti-CD11b and sorted using FACS Vantage SE Cell Sorter.
Aβ uptake and T-cell stimulation by microglia: PE-labeled microglial cells were cultured in MatTek culture dishes (Ashland, Mass.) for 24 hours in the DMEM-FCS medium. […] Live images were then taken for 30 min with 20 sec intervals by a Zeiss Laser Scanning Confocal Microscope and analyzed by 3D analysis software (Zeiss, Thornwood, N.Y.). For the microglia-T-cell coculture experiments, Aβ-reactive T cells were generated as described and labeled with Alexa Flour 488-conjugated anti-mouse CD4. Resting cells were added to the microglia culture together with Aβ1-42.

[6] = lines from 24 subjects, fine mapping with 15 amino acid overlapping peptides
[7] = αCD3/CD28 1 μg/ml pulsed day 2, GA 50 μg/ml pulsed day 6

Aβ1-40: Aβ1-40 synthetic peptide, one of the two major forms of Aβ protein [reference compound]
fibril formation / aggregation [1]: Slight aggregation was detected in only one sample | reactivity of Aβ28-42-reactive T-cell lines [2]: unreactive

Aβ15-42: overlapping C-terminal fragment of Aβ1-42, residues 15-42 (QKLVFFAEDVGSNKGAIIGLMVGGVVIA; Amyloid-beta protein 42; UniProt P05067 686-713, looked up, fragment)
expression of the CD69 activation marker on CD4+ cells (Aβ-reactive T cells): increased expression | Th2 response (Aβ-reactive T-cell lines): elicit a Th2 response | Distribution of Aβ T-cell epitopes: Number of T-cell lines [2, 6]: 22 | Distribution of Aβ T-cell epitopes: percent [2, 6]: 92%

Glatiramer acetate
subjects that showed proliferation ([3]; all groups tested, 50 μg/ml GA): 90% | Proliferation, Mean cpm ± SEM, Adult [3, 7]: 35,342 ± 7,893 cpm | Proliferation, Mean cpm ± SEM, Alzheimer's disease subjects [3, 7]: 19,403 ± 3,078 cpm | Proliferation, Mean cpm ± SEM, Elderly [3, 7]: 27,311 ± 4,781 cpm

IFN-γ: cytokine used to treat microglial cultures (100 pg/ml)
Aβ uptake by microglia ([4]; pretreated versus untreated cultures, FITC-labeled Aβ 30 min): significantly enhanced | filipodia formation (microglia motility) ([4]; treated versus untreated cultures): longer and occurred with higher frequency | average number of contacts of T cells with the microglial cells ([5]; IFN-γ-treated culture): about 2.1 | motility of the T cells ([5]; IFN-γ-treated versus untreated culture): significant increase | density of T cells on microglia ([5]; IFN-γ-treated versus untreated microglia, Aβ1-42 as antigen): higher density
